Assay results published in ChEMBL document CHEMBL4418490, “N-(heteroaryl)-sulfonamide derivatives useful as s100-inhibitors” (2018).
Values belong to the molecule of their own block, whether it stands above or below them. The source made the active and inactive calls. No cut-off for these calls is given here.

What was measured:
[1] = Plasma concentration in C215 transfected MC38 cells implanted C57BL/6 mouse at 1 mg/kg, iv dosed as cassette formulation and measured at 7 hrs after post dose by LC-MS analysis; assay type: ADME, organism-based
[2] = Plasma concentration in C215 transfected MC38 cells implanted C57BL/6 mouse assessed as 2,5-dichloro-N-(6-chloro-4-hydroxypyridin-3-yl)thiophene-3-sulfonamide level at 5 mg/kg, po dosed as cassette formulation and measured at 1 hr after post dose by LC-MS analysis; assay type: ADME, organism-based; conditions: in vivo
[3] = Plasma concentration in C215 transfected MC38 cells implanted C57BL/6 mouse at 1 mg/kg, iv dosed as cassette formulation and measured at 2 hrs after post dose by LC-MS analysis; assay type: ADME, organism-based
[4] = Plasma concentration in C215 transfected MC38 cells implanted C57BL/6 mouse assessed as 2,5-dichloro-N-(6-chloro-4-hydroxypyridin-3-yl)thiophene-3-sulfonamide level at 1 mg/kg, iv dosed as cassette formulation and measured at 0.083 hrs after post dose by LC-MS analysis; assay type: ADME, organism-based; conditions: in vivo
[5] = Plasma concentration in C215 transfected MC38 cells implanted C57BL/6 mouse at 5 mg/kg, po dosed as cassette formulation and measured at 4 hrs after post dose by LC-MS analysis; assay type: ADME, organism-based
[6] = Plasma concentration in C215 transfected MC38 cells implanted C57BL/6 mouse assessed as 2,5-dichloro-N-(6-chloro-4-hydroxypyridin-3-yl)thiophene-3-sulfonamide level at 1 mg/kg, iv dosed as cassette formulation and measured at 0.5 hrs after post dose by LC-MS analysis; assay type: ADME, organism-based; conditions: in vivo
[7] = Plasma concentration in C215 transfected MC38 cells implanted C57BL/6 mouse at 1 mg/kg, iv dosed as cassette formulation and measured at 4 hrs after post dose by LC-MS analysis; assay type: ADME, organism-based
[8] = Plasma concentration in C215 transfected MC38 cells implanted C57BL/6 mouse assessed as 2,5-dichloro-N-(6-chloro-4-hydroxypyridin-3-yl)thiophene-3-sulfonamide level at 1 mg/kg, iv dosed as cassette formulation and measured at 2 hrs after post dose by LC-MS analysis; assay type: ADME, organism-based; conditions: in vivo
[9] = Plasma concentration in C215 transfected MC38 cells implanted C57BL/6 mouse assessed as 2,5-dichloro-N-(6-chloro-4-hydroxypyridin-3-yl)thiophene-3-sulfonamide level at 1 mg/kg, iv dosed as cassette formulation and measured at 7 hrs after post dose by LC-MS analysis; assay type: ADME, organism-based; conditions: in vivo
[10] = Plasma concentration in C215 transfected MC38 cells implanted C57BL/6 mouse assessed as 2,5-dichloro-N-(6-chloro-4-hydroxypyridin-3-yl)thiophene-3-sulfonamide level at 5 mg/kg, po dosed as cassette formulation and measured at 7 hrs after post dose by LC-MS analysis; assay type: ADME, organism-based; conditions: in vivo
[11] = Plasma concentration in C215 transfected MC38 cells implanted C57BL/6 mouse assessed as 2,5-dichloro-N-(6-chloro-4-hydroxypyridin-3-yl)thiophene-3-sulfonamide level at 1 mg/kg, iv dosed as cassette formulation and measured at 4 hrs after post dose by LC-MS analysis; assay type: ADME, organism-based; conditions: in vivo
[12] = Plasma concentration in C215 transfected MC38 cells implanted C57BL/6 mouse at 5 mg/kg, po dosed as cassette formulation and measured at 0.5 hrs after post dose by LC-MS analysis; assay type: ADME, organism-based
[13] = Plasma concentration in C215 transfected MC38 cells implanted C57BL/6 mouse assessed as 2,5-dichloro-N-(6-chloro-4-hydroxypyridin-3-yl)thiophene-3-sulfonamide level at 5 mg/kg, po dosed as cassette formulation and measured at 0.5 hrs after post dose by LC-MS analysis; assay type: ADME, organism-based; conditions: in vivo
[14] = Plasma concentration in C215 transfected MC38 cells implanted C57BL/6 mouse at 1 mg/kg, iv dosed as cassette formulation and measured at 1 hr after post dose by LC-MS analysis; assay type: ADME, organism-based
[15] = Plasma concentration in C215 transfected MC38 cells implanted C57BL/6 mouse at 1 mg/kg, iv dosed as cassette formulation and measured at 0.083 hrs after post dose by LC-MS analysis; assay type: ADME, organism-based
[16] = Plasma concentration in C215 transfected MC38 cells implanted C57BL/6 mouse assessed as 2,5-dichloro-N-(6-chloro-4-hydroxypyridin-3-yl)thiophene-3-sulfonamide level at 5 mg/kg, po dosed as cassette formulation and measured at 2 hrs after post dose by LC-MS analysis; assay type: ADME, organism-based; conditions: in vivo
[17] = Plasma concentration in C215 transfected MC38 cells implanted C57BL/6 mouse at 5 mg/kg, po dosed as cassette formulation and measured at 1 hr after post dose by LC-MS analysis; assay type: ADME, organism-based
[18] = Plasma concentration in C215 transfected MC38 cells implanted C57BL/6 mouse at 5 mg/kg, po dosed as cassette formulation and measured at 2 hrs after post dose by LC-MS analysis; assay type: ADME, organism-based
[19] = Plasma concentration in C215 transfected MC38 cells implanted C57BL/6 mouse assessed as 2,5-dichloro-N-(6-chloro-4-hydroxypyridin-3-yl)thiophene-3-sulfonamide level at 5 mg/kg, po dosed as cassette formulation and measured at 4 hrs after post dose by LC-MS analysis; assay type: ADME, organism-based; conditions: in vivo
[20] = Plasma concentration in C215 transfected MC38 cells implanted C57BL/6 mouse assessed as 2,5-dichloro-N-(6-chloro-4-hydroxypyridin-3-yl)thiophene-3-sulfonamide level at 1 mg/kg, iv dosed as cassette formulation and measured at 1 hr after post dose by LC-MS analysis; assay type: ADME, organism-based; conditions: in vivo
[21] = Plasma concentration in C215 transfected MC38 cells implanted C57BL/6 mouse at 1 mg/kg, iv dosed as cassette formulation and measured at 0.5 hrs after post dose by LC-MS analysis; assay type: ADME, organism-based
[22] = Plasma concentration in C215 transfected MC38 cells implanted C57BL/6 mouse at 5 mg/kg, po dosed as cassette formulation and measured at 7 hrs after post dose by LC-MS analysis; assay type: ADME, organism-based
MC-38 = assay: Antitumor activity against C215 transfected MC38 cells implanted in C57BL/6 mouse assessed as inhibition of tumor growth at 30 mg/kg, po dosed daily for 15 days starting following day of tumor inoculation; assay type: functional, organism-based

concentration at 7 h [1]: 2500 nM | concentration [2]: 490 nM | concentration at 2 h [3]: 17500 nM | concentration [4]: 89 nM | concentration at 4 h [5]: 47100 nM | concentration [6]: 200 nM | concentration at 4 h [7]: 7800 nM | concentration [8]: 210 nM | concentration [9]: 130 nM | concentration [10]: 780 nM | concentration [11]: 180 nM | concentration at 0.5 h [12]: 86800 nM | concentration [13]: 460 nM | concentration at 1 h [14]: 23700 nM | concentration at 0.083 h [15]: 32200 nM | concentration [16]: 690 nM | concentration at 1 h [17]: 91600 nM | concentration at 2 h [18]: 109000 nM | concentration [19]: 610 nM | concentration [20]: 190 nM | concentration at 0.5 h [21]: 19300 nM | concentration at 7 h [22]: 50300 nM
Structure (SMILES): COc1cc(Cl)ncc1NS(=O)(=O)c1cc(Cl)sc1Cl

Structure (SMILES): O=S(=O)(Nc1cnccc1O)c1cc(Cl)sc1Cl
TGI (MC-38): Active
